This note sets out measurements from PMC2410218, “Identification of an HLA-A^*0201-restricted T-cell epitope derived from the prostate cancer-associated protein prostein” (British Journal of Cancer, 2004).

The target of one data set is T1, HLA-A^*0201 (Homo sapiens, UniProt P04439, D140Y/D185E/D98H/E176V/E277Q/G131W/G231S/I119V/I121R/I166T/I218V/L300P/L318F/N151K/N90K/P208A/P217A/Q86G/Q94H/R138H/R169H/T345S).
T1 construct: endogenous in cells; host or cells: B-cell lines LCL721 or JY
Kind of data set: Fluorescence-based competition assay on B-cell lines LCL721 or JY. The conditions noted are these: inhibition of binding of reporter peptide ILK(FITC)EPVHGV relative to positive control peptide YLLPAIVHI set as 100%; all peptides at 10 μM; LCL721 or JY cells, no acid strip; flow cytometry. The protocol: Binding studies of potential HLA-A^*0201 fitting peptides were carried out using the B-cell lines LCL721 or JY and a fluorescence-based competition assay, essentially as described by [van der Burg et al (1995)], but without performing acid strip. Reporter peptide was ILK(FITC)EPVHGV from HIV-1 reverse transcriptase and positive control was […] from RNA helicase p72. Fluorescence intensities were recorded by flow cytometry (FACSCALIBUR; Becton Dickinson, Heidelberg, Germany).

In data set [1] the test system is T2 cells pulsed with the individual peptides. Kind of data set: 51Cr release assay: in vitro-stimulated CD8+ T cells against peptide-pulsed T2 cells. It is filed as cell-based, human. The conditions noted are these: CD8+ T cells stimulated four times with peptide-pulsed autologous DCs (20 μg ml^-1 of each peptide); T2 cells pulsed at 50 μg ml^-1; E:T 20:1; 4 h 51Cr release; triplicates. The protocol:
Briefly, peripheral blood mononuclear cells were prepared from blood samples by Ficoll–Hypaque (Biochrom) density centrifugation. Monocytes were isolated by immunomagnetic cell separation with an anti-CD14 antibody coupled to paramagnetic microbeads (Miltenyi Biotech, Bergisch Gladbach, Germany) according to the manufacturer's instructions. Mature monocyte-derived dendritic cells (DCs) were generated as described previously ([Schmitz et al, 2000]).
After washing 2 × 10^5 peptide-loaded DCs were cocultured with 2 × 10^6 immunomagnetically isolated CD8+ T cells well^−1 of a 24-well tissue culture plate (Greiner, Frickenhausen, Germany). […] The T cells were cultured in 2 ml RPMI 1640 medium well^−1 supplemented with 10% human serum (CCpro, Neustadt, Germany), 100 U ml^−1 IL-2 and 10 ng ml^−1 IL-7 (both from Strathmann Biotech, Hanover, Germany). After 7 days, cultures were washed and restimulated with peptide-loaded DCs at a responder to stimulator ratio of 5 : 1. After three rounds of weekly restimulation, the cultures were tested for the presence of prostein-specific CTLs. […]

The subject of the next data set is LNCaP 1740 cells. Kind of data set: 51Cr release assay: peptide-activated CD8+ T cells against LNCaP 1740 cells. The class given is cell-based, human. Here is the method: (§1) Briefly, LNCaP 1740 cells were cultured for 24 h in phenol red-free RPMI (Life Technologies) supplemented with 1% nonessential amino acids, 10 mM HEPES (Life Technologies) and 10% charcoal-stripped FCS (Biochrom). The cultivation was continued for additional 48 h in the androgen-depleted medium or in the presence of 1 nM of the synthetic androgen R1881 (Perkin-Elmer Life Sciences, Rodgau-Jügesheim, Germany). Subsequently, the cells were harvested and were used as target cells in a chromium release assay.
After washing 2 × 10^5 peptide-loaded DCs were cocultured with 2 × 10^6 immunomagnetically isolated CD8+ T cells well^−1 of a 24-well tissue culture plate (Greiner, Frickenhausen, Germany). […] After 7 days, cultures were washed and restimulated with peptide-loaded DCs at a responder to stimulator ratio of 5 : 1. After three rounds of weekly restimulation, the cultures were tested for the presence of prostein-specific CTLs.
The HLA-A2 restriction of CD8+ T-cell-mediated lysis was tested at an effector cell to target cell ratio of 30 : 1 in the presence of the anti-HLA-A2 monoclonal antibody derived from the MA2.1 hybridoma (American Type Culture Collection) at a final concentration of 1 μg ml^−1.

The next data set has as its system K562 cells. Kind of data set: 51Cr release assay: peptide-activated CD8+ T cells against K562 cells. It is filed as cell-based, human. The note with it: E:T 3:1, 10:1, 30:1; 4 h 51Cr release. Here is the method:
After washing 2 × 10^5 peptide-loaded DCs were cocultured with 2 × 10^6 immunomagnetically isolated CD8+ T cells well^−1 of a 24-well tissue culture plate (Greiner, Frickenhausen, Germany). […] The T cells were cultured in 2 ml RPMI 1640 medium well^−1 supplemented with 10% human serum (CCpro, Neustadt, Germany), 100 U ml^−1 IL-2 and 10 ng ml^−1 IL-7 (both from Strathmann Biotech, Hanover, Germany). After 7 days, cultures were washed and restimulated with peptide-loaded DCs at a responder to stimulator ratio of 5 : 1. After three rounds of weekly restimulation, the cultures were tested for the presence of prostein-specific CTLs.
Cytotoxic activity of the in vitro-stimulated CTLs was assayed against the HLA-A^*0201-positive mutant cell line T2 pulsed with the individual prostein-derived peptides or an irrelevant HLA-A^*0201-binding peptide from HIV-1 reverse transcriptase at a concentration of 50 μg ml^−1, against the PCa cell line LNCaP 1740, the melanoma cell line 93.04A12.1 and against K562 cells as targets in a 4 h standard ^51Cr release assay as described previously ([Kiessling et al, 2002]). The HLA-A2 restriction of CD8+ T-cell-mediated lysis was tested at an effector cell to target cell ratio of 30 : 1 in the presence of the anti-HLA-A2 monoclonal antibody derived from the MA2.1 hybridoma (American Type Culture Collection) at a final concentration of 1 μg ml^−1.

Data set [2] has as its system prostein mRNA expression in LNCaP 1740 cells. Nature of the data set: Quantitative RT-PCR of prostein transcripts in LNCaP 1740 cells under androgen deprivation or stimulation. The conditions noted are these: 1 nM R1881 for 48 h; real-time PCR normalised to HPRT; means of two LC runs. It is filed as cell-based, human. The protocol:
as §1, with “The androgen deprivation and stimulation experiments were performed as described previously ([Xu et al, 2001]). Briefly,” for “Briefly,”
The mRNA quantity of prostein was determined using a LightCycler (LC)-based real-time PCR protocol based on SYBR Green I detection (LC – FastStart DNA Master SYBR Green I; Roche Diagnostics, Mannheim, Germany) and the primer pair Prostein_N1 (5′-[…]-3′) and Prostein_C1 (5′-[…]-3′) to amplify a 240 bp cDNA fragment spanning two exons.
The mRNA copy number was adjusted to the RT–PCR product quantity of hypoxanthine phosphoribosyltransferase (HPRT) determined by LC technique using the primer pair HPRT_N1 (5′-[…]-3′) and HPRT_C1 (5′-[…]-3′) for the amplification of a 238 bp fragment. […]
(In qPCR the cycle at which signal appears reflects the starting amount.)

On to CLAAGITYV [compound 2004], for which the “rBA (%) relative binding affinity” value at HLA-A^*0201 worked out at 94.0%. For the same compound, the “Induction of peptide-specific CTLs (specific lysis of peptide-loaded T2 cells)” value in data set [1] is reported as “induced specific CTLs in all three donors tested”. Besides, the “Lysis of LNCaP 1740 cells by CTLs specifically recognising the peptide” value in the data set on LNCaP 1740 cells (HLA-A*0201-positive, prostein-expressing PCa cell line, E:T 3:1, 10:1, 30:1, 4 h 51Cr release, three donors) is given as “capable of lysing”. In addition, the “Lysis of K562 cells by peptide-activated T cells (natural killer cell-like activity)” value in the data set on K562 cells was “failure”.
Take ALLPRLHQL [compound 1487]: the “rBA (%) relative binding affinity” value at HLA-A^*0201 turned out to be 84.1%.
`C[C@]1(O)CC[C@H]2[C@@H]3CCC4=CC(=O)CCC4=C3C=C[C@@]21C` [R1881, reference compound]: in the data set with LNCaP 1740 cells (1 nM R1881 for 48 h after 24 h in charcoal-stripped FCS medium, E:T 30:1, all three donors), the “T-cell-mediated cytotoxicity against LNCaP 1740 cells deprived of androgen compared with cells grown in the presence of R1881” value is listed as “clearly reduced”. The “Prostein mRNA expression in LNCaP 1740 under androgen deprivation compared with cells cultured in the presence of R1881” value in data set [2] is “downregulated but still detectable”.
